Holding throughout (format): functional, cell-based
Holding throughout (conditions): for Kb: read-out: pA2 (converted)

Assay [1] addresses Muscarinic acetylcholine receptor M3 (Homo sapiens, UniProt P20309). Put plainly: Antagonist activity at human recombinant muscarinic M3 receptor expressed in CHO cells assessed as inhibition of acetylcholine-induced intracellular Ca2+ mobilization by FLIPR assay. Background: Calcium assays in cells follow changes in intracellular calcium, usually with a dye or a luminescent sensor.

In assay [2] the target is T1, Muscarinic acetylcholine receptor M1 (Homo sapiens, UniProt P11229).
T1 sequence (P11229 whole entry): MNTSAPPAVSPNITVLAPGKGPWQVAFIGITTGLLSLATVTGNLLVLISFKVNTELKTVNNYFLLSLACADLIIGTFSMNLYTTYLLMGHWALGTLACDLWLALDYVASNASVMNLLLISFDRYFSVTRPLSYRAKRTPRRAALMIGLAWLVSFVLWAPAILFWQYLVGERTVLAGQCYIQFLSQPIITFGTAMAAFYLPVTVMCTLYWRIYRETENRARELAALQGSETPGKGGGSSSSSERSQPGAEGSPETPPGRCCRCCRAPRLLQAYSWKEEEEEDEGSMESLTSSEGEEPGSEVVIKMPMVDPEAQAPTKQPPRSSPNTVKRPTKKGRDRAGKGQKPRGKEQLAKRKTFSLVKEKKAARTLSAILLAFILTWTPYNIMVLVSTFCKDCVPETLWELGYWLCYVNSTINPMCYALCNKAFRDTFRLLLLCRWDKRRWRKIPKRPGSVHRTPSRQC
Put plainly: Antagonist activity at human recombinant muscarinic M1 receptor expressed in CHO cells assessed as inhibition of acetylcholine-induced intracellular Ca2+ mobilization by FLIPR assay.

The target of assay [3] is T2, Muscarinic acetylcholine receptor M2 (Homo sapiens, UniProt P08172).
T2 sequence (P08172 whole entry): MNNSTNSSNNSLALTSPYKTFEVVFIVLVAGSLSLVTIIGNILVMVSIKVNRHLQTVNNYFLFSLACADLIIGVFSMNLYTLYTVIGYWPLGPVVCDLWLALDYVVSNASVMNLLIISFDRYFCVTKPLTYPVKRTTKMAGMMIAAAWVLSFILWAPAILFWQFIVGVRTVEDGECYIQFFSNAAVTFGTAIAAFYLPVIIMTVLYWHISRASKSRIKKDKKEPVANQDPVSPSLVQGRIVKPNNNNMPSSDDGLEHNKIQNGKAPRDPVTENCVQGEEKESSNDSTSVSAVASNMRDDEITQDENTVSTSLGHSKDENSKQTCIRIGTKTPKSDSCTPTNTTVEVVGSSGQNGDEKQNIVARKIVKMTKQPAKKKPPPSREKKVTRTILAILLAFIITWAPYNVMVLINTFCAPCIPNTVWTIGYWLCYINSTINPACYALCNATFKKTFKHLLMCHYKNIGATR
The assay is described as follows: Antagonist activity at human recombinant muscarinic M2 receptor expressed in CHO cells coexpressing chimeric G protein Gqi5 assessed as inhibition of acetylcholine-induced intracellular Ca2+ mobilization by FLIPR assay.

pIC50: −log10 of the molar value. Where only a bound is given, the exact number is not on record here.

Chain of Muscarinic acetylcholine receptor M3 (P20309 whole entry): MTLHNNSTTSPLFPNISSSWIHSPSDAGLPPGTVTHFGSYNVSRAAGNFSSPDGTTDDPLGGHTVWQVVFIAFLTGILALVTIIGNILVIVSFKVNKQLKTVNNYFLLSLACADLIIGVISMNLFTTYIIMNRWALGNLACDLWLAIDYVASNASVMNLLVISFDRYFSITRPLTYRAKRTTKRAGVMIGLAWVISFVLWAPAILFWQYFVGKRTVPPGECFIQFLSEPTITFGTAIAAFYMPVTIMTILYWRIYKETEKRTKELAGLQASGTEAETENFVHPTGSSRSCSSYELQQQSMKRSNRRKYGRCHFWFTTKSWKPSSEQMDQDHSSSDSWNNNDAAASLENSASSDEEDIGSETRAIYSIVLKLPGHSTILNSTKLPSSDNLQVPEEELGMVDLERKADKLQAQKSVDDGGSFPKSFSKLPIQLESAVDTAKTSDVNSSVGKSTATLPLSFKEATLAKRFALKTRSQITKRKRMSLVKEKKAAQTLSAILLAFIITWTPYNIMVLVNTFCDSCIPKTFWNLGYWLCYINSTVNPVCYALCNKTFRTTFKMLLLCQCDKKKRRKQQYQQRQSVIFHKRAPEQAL

In the case of `CCOC(=O)c1ccc(NC(=O)N[C@@H](Cc2ccc(Cl)cc2)C(=O)N[C@H]2CC[N+](C)(Cc3ccc4c(c3)OCO4)C2)cc1` (some centres not stated), the figures for the pIC50 in assay [1], in assay [2] and in assay [3] were 8.00, 7.40 and 8.20, respectively.
Consider `Cc1noc(-c2ccc(NC(=O)N[C@@H](Cc3ccc(O)cc3)C(=O)N[C@H]3CCC[N+](C)(Cc4ccc(O)cc4)C3)cc2)n1` (some centres not stated), for which the Kb in assay [1] was 2 nM; in assay [2] it was 158 nM; in assay [3] it was 6.31 nM.
In the case of `O=C(Nc1ccc(C(=O)OCC2CC2)cc1)N[C@@H](Cc1ccc(O)cc1)C(=O)NC1CCN(Cc2ccc(O)cc2)C1` (some centres not stated), the pIC50 in assay [1] was 7.00; in assay [2], 6.00; in assay [3], 6.40.
Take `CCOC(=O)c1ccc(NC(=O)N[C@@H](Cc2ccc(O)cc2)C(=O)N[C@H]2CC[N+](C)(Cc3ccc(F)cc3)C2)cc1` (some centres not stated): the pIC50 in assay [1] is 8.20; in assay [2] it was 6.70; in assay [3], 7.40.
For `CCCOC(=O)c1ccc(NC(=O)N[C@@H](Cc2ccc(O)cc2)C(=O)NC2CCN(Cc3ccc(O)cc3)C2)cc1` (some centres not stated) the same measures were 8.00, 6.00 and 7.00.
As for `CCN(CC)C(=O)c1ccc(NC(=O)N[C@@H](Cc2ccc(O)cc2)C(=O)NC2CCN(Cc3ccc(C#N)cc3)C2)cc1` (some centres not stated), the pIC50 in assay [1] was 6.40; in assay [2], under 5.50; in assay [3], under 5.50.
Consider `CCOC(=O)c1ccc(NC(=O)N[C@@H](Cc2ccc(O)cc2)C(=O)N[C@H]2CC[N+](C)(Cc3ccc(O)cc3)C2)cc1` (some centres not stated), for which the pIC50 in assay [1] was 8.20; in assay [2], 6.60; in assay [3] it was 7.40.
On to `COC(=O)c1ccc(NC(=O)N[C@@H](Cc2ccc(O)cc2)C(=O)NC2CCN(Cc3ccc(O)cc3)C2)cc1` (some centres not stated), for which the results for the pIC50 in assay [1], in assay [2] and in assay [3] were 7.60, 6.00 and 6.50, respectively.
For `CCOC(=O)c1ccc(NC(=O)N[C@@H](Cc2ccc(C#N)cc2)C(=O)N[C@H]2CC[N+](C)(Cc3ccc4c(c3)OCO4)C2)cc1` (some centres not stated) the same measures were 7.30, 6.60 and 7.90.
For `CCOC(=O)c1ccc(NC(=O)N[C@@H](Cc2ccc(-c3ccccc3)cc2)C(=O)N[C@H]2CC[N+](C)(Cc3ccc4c(c3)OCO4)C2)cc1` (some centres not stated) the same measures were 7.80, 7.90 and 8.30.
Taken in the same sequence, the figures for `CCOC(=O)c1ccc(NC(=O)N[C@@H](Cc2ccccc2Cl)C(=O)N[C@H]2CC[N+](C)(Cc3ccc4c(c3)OCO4)C2)cc1` (some centres not stated) were 6.90, 5.70 and 7.00.
With `CC(C)NC(=O)c1ccc(NC(=O)N[C@@H](Cc2ccc(O)cc2)C(=O)N[C@H]2CCC[N+](C)(Cc3ccc(O)cc3)C2)cc1` (some centres not stated), the figures for the Kb in assay [1], in assay [2] and in assay [3] were 0.631 nM, 79.4 nM and 3.98 nM, respectively.
As for `CCOC(=O)c1ccc(NC(=O)N[C@@H](Cc2ccc(F)cc2)C(=O)N[C@H]2CC[N+](C)(Cc3ccc4c(c3)OCO4)C2)cc1` (some centres not stated), the pIC50 was 7.80 in assay [1], 7.00 in assay [2] and 8.00 in assay [3].
Take `CC(C)OC(=O)c1ccc(NC(=O)N[C@@H](Cc2ccc(O)cc2)C(=O)N[C@H]2CCC[N+]3(CCCCCC3)C2)cc1`: the figures for the Kb in assay [1], in assay [2] and in assay [3] were 3.16 nM, 79.4 nM and 5.01 nM, respectively.
In the case of `CNC(=O)c1ccc(NC(=O)N[C@@H](Cc2ccc(O)cc2)C(=O)NC2CCN(Cc3ccc(C#N)cc3)C2)cc1` (some centres not stated), the pIC50 is 5.60 in assay [1], under 5.50 in assay [2] and under 5.50 in assay [3].
As to `CC(C)NC(=O)c1ccc(NC(=O)N[C@@H](Cc2ccc(O)cc2)C(=O)NC2CCN(Cc3ccc(C#N)cc3)C2)cc1` (some centres not stated), the pIC50 in assay [1] was 7.00; in assay [2], under 5.50; in assay [3], 5.80.
For the molecule `N#Cc1ccc(CN2CCC(NC(=O)[C@H](Cc3ccc(O)cc3)NC(=O)Nc3ccc(C(=O)NCc4ccccc4)cc3)C2)cc1` (some centres not stated), the pIC50 in assay [1] was 5.80; in assay [2] it was under 5.50; in assay [3] it was under 5.50.
Take `CC(C)COC(=O)c1ccc(NC(=O)N[C@@H](Cc2ccc(O)cc2)C(=O)NC2CCN(Cc3ccc(O)cc3)C2)cc1` (some centres not stated): the results for the pIC50 in assay [1], in assay [2] and in assay [3] were 6.60, under 5.50 and 5.90, respectively.
For `CCOC(=O)c1ccc(NC(=O)N[C@@H](Cc2ccc(C)cc2)C(=O)N[C@H]2CC[N+](C)(Cc3ccc4c(c3)OCO4)C2)cc1` (some centres not stated) the same measures were 7.80, 7.00 and 8.00.
In the case of `CCOC(=O)c1ccc(NC(=O)N[C@@H](Cc2ccc(OC)c(OC)c2)C(=O)N[C@H]2CC[N+](C)(Cc3ccc4c(c3)OCO4)C2)cc1` (some centres not stated), the negative logarithm of the IC50 (pIC50) in assay [1] is 5.90; in assay [2], 6.20; in assay [3], 7.30.
Turning to `CC(C)OC(=O)c1ccc(NC(=O)N[C@@H](Cc2ccc(O)cc2)C(=O)N[C@H]2CCC[N+](CC3CC3)(CC3CC3)C2)cc1`, the Kb in assay [1] was 0.631 nM; in assay [2], 39.8 nM; in assay [3] it was 5.01 nM.
Turning to `N#Cc1ccc(CN2CCC(NC(=O)[C@H](Cc3ccc(O)cc3)NC(=O)Nc3ccc(C(=O)Nc4ccccc4)cc3)C2)cc1` (some centres not stated), the pIC50 in assay [1] is 6.30; in assay [2], under 5.50; in assay [3], under 5.50.
For `CCOC(=O)c1ccc(NC(=O)N[C@@H](Cc2ccc(O)cc2)C(=O)N[C@H]2CCC[N+](C)(Cc3ccc(F)cc3)C2)cc1` (some centres not stated), the values for the pIC50 in assay [1], in assay [2] and in assay [3] were 8.70, 7.00 and 8.60, respectively.
Taken in the same sequence, the figures for `CCOC(=O)c1ccc(NC(=O)N[C@@H](Cc2ccc(Cl)c(Cl)c2)C(=O)N[C@H]2CC[N+](C)(Cc3ccc4c(c3)OCO4)C2)cc1` (some centres not stated) were 7.60, 7.40 and 7.90.
Consider `CCOC(=O)c1ccc(NC(=O)N[C@@H](Cc2ccc(Br)cc2)C(=O)N[C@H]2CC[N+](C)(Cc3ccc4c(c3)OCO4)C2)cc1` (some centres not stated), for which the pIC50 is 7.90 in assay [1], 7.50 in assay [2] and 8.40 in assay [3].
Taken in the same sequence, the figures for `CCOC(=O)c1ccc(NC(=O)N[C@@H](Cc2ccc(N)cc2)C(=O)N[C@H]2CC[N+](C)(Cc3ccc4c(c3)OCO4)C2)cc1` (some centres not stated) were 7.80, 5.90 and 7.80.
Turning to `CCOC(=O)c1ccc(NC(=O)N[C@@H](Cc2ccc(OC)cc2)C(=O)N[C@H]2CC[N+](C)(Cc3ccc4c(c3)OCO4)C2)cc1` (some centres not stated), the negative logarithm of the IC50 (pIC50) was 7.40 in assay [1], 7.10 in assay [2] and 8.30 in assay [3].
`CCOC(=O)c1ccc(NC(=O)N[C@@H](Cc2ccc(C(F)(F)F)cc2)C(=O)N[C@H]2CC[N+](C)(Cc3ccc4c(c3)OCO4)C2)cc1` (some centres not stated): the pIC50 in assay [1] is 7.50; in assay [2] it was 7.30; in assay [3], 8.00.
For `CCNC(=O)c1ccc(NC(=O)N[C@@H](Cc2ccc(O)cc2)C(=O)NC2CCN(Cc3ccc(C#N)cc3)C2)cc1` (some centres not stated) the same measures were 6.50, under 5.50 and under 5.50.
`N#Cc1ccc(CN2CCC(NC(=O)[C@H](Cc3ccc(O)cc3)NC(=O)Nc3ccc(C(=O)N4CCOCC4)cc3)C2)cc1` (some centres not stated): the results for the pIC50 in assay [1], in assay [2] and in assay [3] were 6.00, under 5.50 and under 5.50, respectively.
On to `CCCNC(=O)c1ccc(NC(=O)N[C@@H](Cc2ccc(O)cc2)C(=O)NC2CCN(Cc3ccc(C#N)cc3)C2)cc1` (some centres not stated), for which the pIC50 in assay [1] is 6.30; in assay [2], under 5.50; in assay [3] it was under 5.50.
Consider `CCOC(=O)c1ccc(NC(=O)N[C@@H](Cc2ccc(C(=O)c3ccccc3)cc2)C(=O)N[C@H]2CC[N+](C)(Cc3ccc4c(c3)OCO4)C2)cc1` (some centres not stated), for which the pIC50 was 7.90 in assay [1], 8.00 in assay [2] and 8.60 in assay [3].
In the case of `CCOC(=O)c1ccc(NC(=O)N[C@@H](Cc2cccc(Cl)c2)C(=O)N[C@H]2CC[N+](C)(Cc3ccc4c(c3)OCO4)C2)cc1` (some centres not stated), the pIC50 in assay [1] was 8.10; in assay [2], 7.60; in assay [3], 8.40.
For the molecule `CCOC(=O)c1ccc(NC(=O)N[C@@H](Cc2ccc(O)cc2)C(=O)N[C@H]2CC[N+](C)(Cc3ccc4c(c3)OCO4)C2)cc1` (some centres not stated), the values for the pIC50 in assay [1], in assay [2] and in assay [3] were 8.20, 6.80 and 7.40, respectively.

What is called pIC50 is −log10 of the IC50, conventionally taken in molar units.

(Values after ChEMBL document CHEMBL1152232, “Muscarinic acetylcholine receptor antagonists: SAR and optimization of tyrosine ureas” (Bioorg Med Chem Lett, 2008).)
